Measured values from the NIST ThermoML archive (doi:10.1021/je050509f).

Assay: mn = molality of the nth substance listed, in mol/kg
Settings: Liquid, Vibrating tube method

[Cl-].[Cl-].[Zn+2] [zinc chloride] + CO
Settings	mass density [kg/m3]
348.27 K, 19998 kPa, m1 = 0.1348	775.25
348.27 K, 20001 kPa, m1 = 5.367	1160.36
348.27 K, 20003 kPa, m1 = 1.039	851.34
348.27 K, 24987 kPa, m1 = 1.977	930.28
348.27 K, 24989 kPa, m1 = 0.8018	837.48
348.27 K, 24994 kPa, m1 = 0.1348	780.25
348.27 K, 24994 kPa, m1 = 1.039	856.19
348.27 K, 24996 kPa, m1 = 0.4768	810.44
348.27 K, 25001 kPa, m1 = 5.367	1164.74
348.27 K, 29985 kPa, m1 = 0.4768	815.14
348.27 K, 29987 kPa, m1 = 0.8018	842.17
348.27 K, 29990 kPa, m1 = 1.977	934.86
348.27 K, 29998 kPa, m1 = 0.1348	785.01
348.27 K, 30011 kPa, m1 = 5.367	1169.01
348.27 K, 30014 kPa, m1 = 1.039	860.81
348.27 K, 34985 kPa, m1 = 1.977	939.27
348.27 K, 34987 kPa, m1 = 0.4768	819.64
348.27 K, 34988 kPa, m1 = 0.8018	846.66
348.27 K, 34990 kPa, m1 = 1.039	865.23
348.27 K, 34990 kPa, m1 = 5.367	1173.15
348.27 K, 34998 kPa, m1 = 0.1348	789.52
348.27 K, 39984 kPa, m1 = 5.367	1177.19
348.27 K, 39991 kPa, m1 = 1.039	869.48
348.27 K, 39993 kPa, m1 = 1.977	943.53
348.27 K, 39998 kPa, m1 = 0.1348	793.81
348.27 K, 39999 kPa, m1 = 0.8018	850.97
348.27 K, 40007 kPa, m1 = 0.4768	823.94
373.3 K, 523 kPa, m1 = 0.8018	783.25
373.3 K, 527 kPa, m1 = 0.4768	755.9
373.3 K, 527 kPa, m1 = 1.977	876.84
373.3 K, 533 kPa, m1 = 0.1348	725.48
373.3 K, 535 kPa, m1 = 5.367	1112.11
373.3 K, 536 kPa, m1 = 1.039	802.51
373.3 K, 4986 kPa, m1 = 5.367	1117.02
373.3 K, 4988 kPa, m1 = 1.039	808.88
373.3 K, 4990 kPa, m1 = 0.4768	762.64
373.3 K, 4994 kPa, m1 = 0.8018	789.83
373.3 K, 4995 kPa, m1 = 0.1348	732.41
373.3 K, 5003 kPa, m1 = 1.977	882.85
373.3 K, 9984 kPa, m1 = 0.4768	769.58
373.3 K, 9984 kPa, m1 = 0.8018	796.61
373.3 K, 9985 kPa, m1 = 0.1348	739.51
373.3 K, 9986 kPa, m1 = 1.977	889.12
373.3 K, 9995 kPa, m1 = 1.039	815.55
373.3 K, 10002 kPa, m1 = 5.367	1122.33
373.3 K, 14985 kPa, m1 = 0.4768	776
373.3 K, 14990 kPa, m1 = 5.367	1127.43
373.3 K, 15001 kPa, m1 = 0.1348	746.08
373.3 K, 15005 kPa, m1 = 0.8018	802.94
373.3 K, 15009 kPa, m1 = 1.039	821.76
373.3 K, 15009 kPa, m1 = 1.977	895.06
373.3 K, 19986 kPa, m1 = 0.1348	752.14
373.3 K, 19987 kPa, m1 = 0.4768	781.98
373.3 K, 20001 kPa, m1 = 1.039	827.53
373.3 K, 20005 kPa, m1 = 0.8018	808.85
373.3 K, 20008 kPa, m1 = 5.367	1132.37
373.3 K, 20012 kPa, m1 = 1.977	900.64
373.3 K, 24985 kPa, m1 = 0.4768	787.59
373.3 K, 24989 kPa, m1 = 1.039	832.97
373.3 K, 24990 kPa, m1 = 0.8018	814.38
373.3 K, 24992 kPa, m1 = 0.1348	757.83
373.3 K, 25001 kPa, m1 = 1.977	905.94
373.3 K, 25001 kPa, m1 = 5.367	1137.12
373.3 K, 29985 kPa, m1 = 0.1348	763.18
373.3 K, 29988 kPa, m1 = 1.977	910.98
373.3 K, 29993 kPa, m1 = 1.039	838.14
373.3 K, 29994 kPa, m1 = 5.367	1141.72
373.3 K, 29997 kPa, m1 = 0.8018	819.65
373.3 K, 30012 kPa, m1 = 0.4768	792.89
373.3 K, 34983 kPa, m1 = 0.8018	824.61
373.3 K, 34984 kPa, m1 = 1.039	843.03
373.3 K, 34986 kPa, m1 = 5.367	1146.17
373.3 K, 34987 kPa, m1 = 0.4768	797.89
373.3 K, 34997 kPa, m1 = 1.977	915.82
373.3 K, 35008 kPa, m1 = 0.1348	768.23
373.3 K, 39990 kPa, m1 = 1.039	847.71
373.3 K, 39991 kPa, m1 = 0.8018	829.37
373.3 K, 39993 kPa, m1 = 0.1348	773.04
373.3 K, 39995 kPa, m1 = 5.367	1150.53
373.3 K, 39997 kPa, m1 = 1.977	920.45
373.3 K, 40000 kPa, m1 = 0.4768	802.68
398.33 K, 893 kPa, m1 = 0.1348	695.88
398.33 K, 899 kPa, m1 = 5.367	1083.75
398.33 K, 904 kPa, m1 = 1.039	773.5
398.33 K, 905 kPa, m1 = 1.977	848.36
398.33 K, 907 kPa, m1 = 0.8018	754.11
398.33 K, 908 kPa, m1 = 0.4768	726.55
398.33 K, 4981 kPa, m1 = 0.4768	734.09
398.33 K, 4985 kPa, m1 = 1.977	854.8
398.33 K, 4988 kPa, m1 = 0.8018	761.4
398.33 K, 4994 kPa, m1 = 0.1348	703.77
398.33 K, 5002 kPa, m1 = 5.367	1088.78
398.33 K, 5004 kPa, m1 = 1.039	780.59
398.33 K, 9983 kPa, m1 = 0.4768	742.44
398.33 K, 9984 kPa, m1 = 0.1348	712.39
398.33 K, 9984 kPa, m1 = 0.8018	769.52
398.33 K, 9988 kPa, m1 = 5.367	1094.64
398.33 K, 9993 kPa, m1 = 1.039	788.48
398.33 K, 9999 kPa, m1 = 1.977	862.15
398.33 K, 14985 kPa, m1 = 1.039	795.7
398.33 K, 14988 kPa, m1 = 0.1348	720.18
398.33 K, 14993 kPa, m1 = 0.4768	750.05
398.33 K, 14994 kPa, m1 = 0.8018	776.95
398.33 K, 15018 kPa, m1 = 5.367	1100.25
398.33 K, 15019 kPa, m1 = 1.977	868.94
398.33 K, 19982 kPa, m1 = 0.8018	783.77
398.33 K, 19982 kPa, m1 = 1.039	802.38
398.33 K, 19984 kPa, m1 = 0.1348	727.3
398.33 K, 19994 kPa, m1 = 0.4768	757.02
398.33 K, 19996 kPa, m1 = 1.977	875.28
398.33 K, 20003 kPa, m1 = 5.367	1105.62
398.33 K, 24984 kPa, m1 = 1.039	808.61
398.33 K, 24989 kPa, m1 = 5.367	1110.77
398.33 K, 24992 kPa, m1 = 0.4768	763.47
398.33 K, 25003 kPa, m1 = 0.1348	733.89
398.33 K, 25006 kPa, m1 = 0.8018	790.16
398.33 K, 25009 kPa, m1 = 1.977	881.23
398.33 K, 29990 kPa, m1 = 1.977	886.89
398.33 K, 29994 kPa, m1 = 0.8018	796.1
398.33 K, 29996 kPa, m1 = 0.1348	740.01
398.33 K, 29996 kPa, m1 = 1.039	814.47
398.33 K, 29999 kPa, m1 = 5.367	1115.75
398.33 K, 30005 kPa, m1 = 0.4768	769.51
398.33 K, 34992 kPa, m1 = 0.4768	775.14
398.33 K, 34993 kPa, m1 = 0.1348	745.75
398.33 K, 35003 kPa, m1 = 5.367	1120.56
398.33 K, 35010 kPa, m1 = 1.039	819.97
398.33 K, 35011 kPa, m1 = 0.8018	801.72
398.33 K, 35014 kPa, m1 = 1.977	892.27
398.33 K, 39988 kPa, m1 = 1.977	897.37
398.33 K, 39989 kPa, m1 = 0.1348	751.12
398.33 K, 39992 kPa, m1 = 0.8018	807.01
398.33 K, 39994 kPa, m1 = 5.367	1125.22
398.33 K, 39997 kPa, m1 = 1.039	825.19
398.33 K, 40002 kPa, m1 = 0.4768	780.53
